Bounds are passed on as bounds.

T1 sequence (J9SQF3 1-1709 isoform J9SQF3-12): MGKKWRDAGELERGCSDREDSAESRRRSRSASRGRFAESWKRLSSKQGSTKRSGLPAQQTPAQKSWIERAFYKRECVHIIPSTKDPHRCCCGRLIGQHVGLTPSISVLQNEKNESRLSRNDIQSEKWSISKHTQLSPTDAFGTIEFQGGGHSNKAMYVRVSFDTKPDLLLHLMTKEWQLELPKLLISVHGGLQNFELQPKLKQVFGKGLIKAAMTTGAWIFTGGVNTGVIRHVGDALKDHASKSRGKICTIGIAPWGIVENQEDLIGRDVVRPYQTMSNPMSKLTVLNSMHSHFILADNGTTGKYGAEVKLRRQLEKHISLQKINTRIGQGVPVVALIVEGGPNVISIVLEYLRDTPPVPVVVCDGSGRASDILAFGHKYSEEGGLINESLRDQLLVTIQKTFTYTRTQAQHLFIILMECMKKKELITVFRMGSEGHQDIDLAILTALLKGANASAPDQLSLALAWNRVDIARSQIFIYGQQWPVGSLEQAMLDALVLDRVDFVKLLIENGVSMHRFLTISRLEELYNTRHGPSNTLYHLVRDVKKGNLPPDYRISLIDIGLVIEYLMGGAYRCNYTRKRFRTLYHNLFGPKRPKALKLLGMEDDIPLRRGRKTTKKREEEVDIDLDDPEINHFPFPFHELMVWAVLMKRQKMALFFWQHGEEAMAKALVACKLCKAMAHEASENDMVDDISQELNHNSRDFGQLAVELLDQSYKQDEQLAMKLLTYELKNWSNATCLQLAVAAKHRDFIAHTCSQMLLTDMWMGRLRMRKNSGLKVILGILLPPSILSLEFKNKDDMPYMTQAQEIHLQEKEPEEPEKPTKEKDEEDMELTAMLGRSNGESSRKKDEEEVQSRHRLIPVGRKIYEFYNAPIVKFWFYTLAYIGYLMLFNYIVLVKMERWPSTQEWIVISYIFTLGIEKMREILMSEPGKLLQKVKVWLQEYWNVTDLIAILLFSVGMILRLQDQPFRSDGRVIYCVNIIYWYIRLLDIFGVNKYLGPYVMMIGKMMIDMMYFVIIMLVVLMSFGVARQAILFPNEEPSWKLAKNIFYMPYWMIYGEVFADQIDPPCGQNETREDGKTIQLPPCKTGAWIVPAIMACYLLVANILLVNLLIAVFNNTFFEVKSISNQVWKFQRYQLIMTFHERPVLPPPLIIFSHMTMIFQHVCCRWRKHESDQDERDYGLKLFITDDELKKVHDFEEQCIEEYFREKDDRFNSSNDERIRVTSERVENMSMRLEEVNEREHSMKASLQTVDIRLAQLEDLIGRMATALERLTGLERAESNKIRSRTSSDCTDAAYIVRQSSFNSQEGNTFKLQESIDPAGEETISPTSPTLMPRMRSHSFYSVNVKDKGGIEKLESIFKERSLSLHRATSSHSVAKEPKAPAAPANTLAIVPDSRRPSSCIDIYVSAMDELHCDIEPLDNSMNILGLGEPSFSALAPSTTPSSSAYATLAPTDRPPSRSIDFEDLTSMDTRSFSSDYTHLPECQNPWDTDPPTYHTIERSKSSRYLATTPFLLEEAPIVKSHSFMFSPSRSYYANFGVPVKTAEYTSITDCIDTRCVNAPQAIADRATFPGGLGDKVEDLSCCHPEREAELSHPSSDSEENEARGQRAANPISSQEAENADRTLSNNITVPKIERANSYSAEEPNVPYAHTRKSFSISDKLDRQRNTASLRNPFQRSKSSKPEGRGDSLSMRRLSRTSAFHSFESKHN

This assay concerns the target T1, mouse TRPM3α2 (mTRPM3) ion channel (Mus musculus, UniProt J9SQF3).
T1 construct: expressed in transfected cells; host or cells: flip-in HEK293
Put plainly: TRPM3 ion channel driven Ca2+ uptake, Fluo-4 AM assay, PS-stimulated (mTRPM3). The class given is cell-based. To be noted: TRPM3 overexpressing flip-in HEK293 cells stimulated with Pregnenolone sulfate (PS) 50 μM, activity ranges A, B, C. The gist of the method: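 Flp-In HEK293 cells overexpressing mTRPM3α2 were added, in Ca²⁺-free Krebs, to wells already holding compound and 50 μM pregnenolone sulfate in Ca²⁺-containing Krebs. Fluo-4 AM fluorescence (ex 485/em 535 nm) was read immediately. Percent inhibition was computed from RFU relative to PS/vehicle wells and a positive-control inhibitor.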
One may read the IC50 as the midpoint of a concentration-inhibition curve. In turn, `Cc1oc2ccc(OCc3ccccc3)cc2c1C(=O)NC1CC1` [Cpd 039, 5-(benzyloxy)-N-cyclopropyl-2-methylbenzofuran-3-carboxamide] registered an IC50 of 1000 to 20000 nM.

Molecule `Cc1oc2ccc(COc3ccccc3F)cc2c1C(=O)NC(C)C(N)=O` (single isomer, unassigned) [Cpd 320-En 1] registered an IC50 of under 1000 nM. In the case of `Cc1oc2ccc(OCc3ccccc3)cc2c1C(=O)N[C@H]1C[C@H]2CC[C@@H](C1)N2` [Cpd 143, 5-(benzyloxy)-N-((1R,3r,5S)-8-azabicyclo[3.2.1]octan-3-yl)-2-methylbenzofuran-3-carboxamide], the IC50 was under 1000 nM. Consider `CC(=O)N1CC[C@H](NC(=O)c2c(C)oc3ccc(OCc4ccccc4)cc23)C1` [Cpd 145, (S)—N-(1-acetylpyrrolidin-3-yl)-5-(benzyloxy)-2-methylbenzofuran-3-carboxamide], for which the IC50 lay in the range of 1000 to 20000 nM.

`Cc1oc2ccc(OCc3ccccc3S(C)(=O)=O)cc2c1C(=O)NC1CCNCC1(F)F` (single isomer, unassigned) [Cpd 333-En 2, N-(3,3-difluoropiperidin-4-yl)-2-methyl-5-((2-(methylsulfonyl)benzyl)oxy)benzofuran-3-carboxamide] came in with an IC50 of under 1000 nM. In turn, `Cc1oc2ccc(OCc3ccccc3)cc2c1C(=O)NC1CCN2CCCC12` (single isomer, unassigned) [Cpd 144-Dia 1, 5-(benzyloxy)-N-(hexahydro-1H-pyrrolizin-1-yl)-2-methylbenzofuran-3-carboxamide] displayed an IC50 of under 1000 nM.

`Cc1oc2ccc(OCc3ccc(F)cc3F)cc2c1C(=O)N[C@@H](CO)C(N)=O` [Cpd 340, (S)—N-(1-amino-3-hydroxy-1-oxopropan-2-yl)-5-((2,4-difluorobenzyl)oxy)-2-methylbenzofuran-3-carboxamide] registered an IC50 of under 1000 nM. On to `Cc1oc2ccc(OCc3ccccc3)cc2c1C(=O)NC1(CO)CCN(C(=O)OC(C)(C)C)CC1` [Cpd 262, tert-butyl 4-(5-(benzyloxy)-2-methylbenzofuran-3-carboxamido)-4-(hydroxymethyl)piperidine-1-carboxylate], for which the half-inhibitory concentration (IC50) lay in the range of 1000 to 20000 nM. Molecule `Cc1oc2ccc(OC(CO)c3ccccc3)cc2c1C(=O)NC1(CO)CCOCC1` (single isomer, unassigned) [Cpd 317-En 1, 5-(2-hydroxy-1-phenylethoxy)-N-(4-(hydroxymethyl)tetrahydro-2H-pyran-4-yl)-2-methylbenzofuran-3-carboxamide] returned an IC50 of under 1000 nM. For `Cc1oc2ccc(OCc3ccccc3)cc2c1C(=O)NCC1CCCO1` (stereo not shown) [Cpd 087, 5-(benzyloxy)-2-methyl-N-((tetrahydrofuran-2-yl)methyl)benzofuran-3-carboxamide] the value was under 1000 nM; for `Cc1oc2ccc(OCc3ccccc3)cc2c1C(=O)NCc1ccncc1` [Cpd 101, 5-(benzyloxy)-2-methyl-N-(pyridin-4-ylmethyl)benzofuran-3-carboxamide], 1000 to 20000 nM; for `Cc1ccccc1COc1ccc2oc(C)c(C(=O)O)c2c1` [Cpd 003, 2-methyl-5-((2-methylbenzyl)oxy)benzofuran-3-carboxylic acid], under 1000 nM.

For the molecule `Cc1oc2c(Cl)cc(OCc3ccccc3)cc2c1C(=O)NC1CNCC1(F)F` (single isomer, unassigned) [Cpd 304-En 2, 5-(benzyloxy)-7-chloro-N-(4,4-difluoropyrrolidin-3-yl)-2-methylbenzofuran-3-carboxamide], the IC50 is over 20000 nM. For `Cc1oc2ccc(OCc3ccccc3)cc2c1C(=O)NC1CC(O)C1` (stereo not shown) [Cpd 052, 5-(benzyloxy)-N-(3-hydroxycyclobutyl)-2-methylbenzofuran-3-carboxamide], the IC50 was under 1000 nM. Molecule `Cc1oc2ccc(OCc3ccccc3)cc2c1C(=O)N1CCCC(N(C)C)C1` (stereo not shown) [Cpd 150, (5-(benzyloxy)-2-methylbenzofuran-3-yl)(3-(dimethylamino)piperidin-1-yl)methanone] yielded an IC50 of over 20000 nM. With `COCCNC(=O)c1c(C)oc2ccc(OCc3ccccc3)cc12` [Cpd 044, 5-(benzyloxy)-N-(2-methoxyethyl)-2-methylbenzofuran-3-carboxamide], the IC50 lay within 1000 to 20000 nM. As for `Cc1oc2ccc(OCc3ccccc3F)cc2c1C(=O)NS(=O)(=O)C1CC1` [Cpd 175, N-(cyclopropylsulfonyl)-5-((2-fluorobenzyl)oxy)-2-methylbenzofuran-3-carboxamide], the figure is under 1000 nM; as for `Cc1cccc(COc2ccc3oc(C)c(C(=O)O)c3c2)c1` [Cpd 005, 2-methyl-5-((3-methylbenzyl)oxy)benzofuran-3-carboxylic acid], under 1000 nM.

As to `Cc1oc2ccc(OCc3ccccc3)cc2c1C(=O)NC1CNCC1F` (racemic) [Cpd 093, rac-5-(benzyloxy)-N-(trans-4-fluoropyrrolidin-3-yl)-2-methylbenzofuran-3-carboxamide], the IC50 is under 1000 nM. As for `Cc1oc2ccc(OCc3ccccc3)cc2c1C(=O)NCCc1ccncc1` [Cpd 139, 5-(benzyloxy)-2-methyl-N-(2-(pyridin-4-yl)ethyl)benzofuran-3-carboxamide], the figure is 1000 to 20000 nM; as for `Cc1oc2ccc(OCc3ccccc3)cc2c1C(=O)N[C@H]1CC[C@@H](N)CC1` [Cpd 116, N-(cis-4-aminocyclohexyl)-5-(benzyloxy)-2-methylbenzofuran-3-carboxamide], under 1000 nM; as for `Cc1oc2ccc(OCc3ccccc3F)cc2c1C(=O)N[C@@H]1COC[C@H]1O` (single isomer, unassigned) [Cpd 330-En 1], under 1000 nM. In turn, `Cc1oc2ccc(OCc3ccccc3)cc2c1C(=O)N[C@@H]1C[C@H]2CC[C@@H](C1)N2C` [Cpd 182, 5-(benzyloxy)-2-methyl-N-((1R,3s,5S)-8-methyl-8-azabicyclo[3.2.1]octan-3-yl)benzofuran-3-carboxamide] registered an IC50 of under 1000 nM.

With `Cc1oc2ccc(OCc3ccccc3)cc2c1C(=O)NC1CCC(O)CC1` (stereo not shown) [Cpd 123, 5-(benzyloxy)-N-(4-hydroxycyclohexyl)-2-methylbenzofuran-3-carboxamide], the IC50 was under 1000 nM. On to `Cc1oc2ccc(OCc3ccccc3F)cc2c1C(=O)NC1COCC1(F)F` (single isomer, unassigned) [Cpd 331-En 1], for which the IC50 is over 20000 nM.

`Cc1oc2ccc(OCc3ccccc3F)cc2c1C(=O)N[C@@H]1COC[C@@H]1O` (single isomer, unassigned) [Cpd 329-En 1] showed an IC50 of under 1000 nM. For `Cc1oc2ccc(OCc3ccccc3)cc2c1C(=O)NC1CCN(C(=O)OC(C)(C)C)CC1` [Cpd 249, tert-butyl 4-(5-(benzyloxy)-2-methylbenzofuran-3-carboxamido)piperidine-1-carboxylate] the value was 1000 to 20000 nM; for `Cc1oc2ccc(OCc3ccccc3)cc2c1C(=O)NC1CCNC1=O` (stereo not shown) [Cpd 071, 5-(benzyloxy)-2-methyl-N-(2-oxopyrrolidin-3-yl)benzofuran-3-carboxamide], under 1000 nM; for `CCc1oc2ccc(OCc3cccc(F)c3)cc2c1C(=O)O` [Cpd 015, 2-ethyl-5-((3-fluorobenzyl)oxy)benzofuran-3-carboxylic acid], 1000 to 20000 nM. Take `Cc1oc2ccc(OCc3ccccc3)cc2c1C(=O)NS(=O)(=O)C(F)(F)F` [Cpd 195, 5-(benzyloxy)-2-methyl-N-((trifluoromethyl)sulfonyl)benzofuran-3-carboxamide]: the IC50 was over 20000 nM. For `Cc1oc2ccc(OCc3cccc(F)c3F)cc2c1C(=O)NC1(CO)CCOCC1` [Cpd 217, 5-((2,3-difluorobenzyl)oxy)-N-(4-(hydroxymethyl)tetrahydro-2H-pyran-4-yl)-2-methylbenzo-furan-3-carboxamide] the value was under 1000 nM. For `Cc1oc2ccc(OCc3ccccc3)cc2c1C(=O)NC1CCN2CCCC12` (stereo not shown) [Cpd 144, 5-(benzyloxy)-N-(hexahydro-1H-pyrrolizin-1-yl)-2-methylbenzofuran-3-carboxamide] the value was under 1000 nM; for `Cc1oc2ccc(OCc3cccc(C(F)(F)F)c3)cc2c1C(=O)N[C@H]1CCNC1` [Cpd 204, (S)-2-methyl-N-(pyrrolidin-3-yl)-5-((3-(trifluoromethyl)benzyl)oxy)benzofuran-3-carboxamide], under 1000 nM; for `Cc1oc2ccc(OCc3cccc(F)c3F)cc2c1C(=O)NC1CCNC1=O` (stereo not shown) [Cpd 171, 5-((2,3-difluorobenzyl)oxy)-2-methyl-N-(2-oxopyrrolidin-3-yl)benzofuran-3-carboxamide], under 1000 nM. As to `Cc1cc2oc(C)c(C(=O)NC3CNCC3(F)F)c2cc1OCc1ccccc1` (single isomer, unassigned) [Cpd 303-En 1, 5-(benzyloxy)-N-(4,4-difluoropyrrolidin-3-yl)-2,6-dimethylbenzofuran-3-carboxamide], the IC50 is 1000 to 20000 nM. `Cc1oc2ccc(OCc3ccccc3)cc2c1C(=O)NC1CC2CCC(C1)N2C` (stereo not shown) [Cpd 181, 5-(benzyloxy)-2-methyl-N-(8-methyl-8-azabicyclo[3.2.1]octan-3-yl)benzofuran-3-carboxamide] had an IC50 of under 1000 nM. For `Cc1oc2ccc(OCc3ccccc3F)cc2c1C(=O)NC(C)CO` (single isomer, unassigned) [Cpd 328-En 1] the value was under 1000 nM; for `CCN1CCC[C@@H]1CNC(=O)c1c(C)oc2ccc(OCc3ccccc3)cc12` [Cpd 153, (R)-5-(benzyloxy)-N-((l-ethylpyrrolidin-2-yl)methyl)-2-methylbenzofuran-3-carboxamide], under 1000 nM; for `Cc1oc2ccc(OCc3ccccc3)cc2c1C(=O)NCCc1ccccc1` [Cpd 134, 5-(benzyloxy)-2-methyl-N-phenethylbenzofuran-3-carboxamide], over 20000 nM.

Molecule `Cc1oc2ccc(OCc3ccccc3Cl)cc2c1C(=O)O` [Cpd 018, 5-((2-chlorobenzyl)oxy)-2-methylbenzofuran-3-carboxylic acid] had an IC50 of 1000 to 20000 nM.

(Values after US20230391739A1, “ARYL DERIVATIVES FOR TREATING TRPM3 MEDIATED DISORDERS” (Katholieke Universiteit Leuven, priority 2020, published 2023).)
